Experiments:
NSP3 SUD-M = NSP3 SUD-M (Severe acute respiratory syndrome coronavirus 2, UniProt P0DTC1); test: biochemical; format: binding, SARS‐CoV‐2
NSP3 UBl1 = NSP3 UBl1 (Severe acute respiratory syndrome coronavirus 2, UniProt P0DTC1); format: binding, SARS‐CoV‐2
NSP9 = NSP9 (Severe acute respiratory syndrome coronavirus 2, UniProt P0DTC1); format: binding, SARS‐CoV‐2

Ac-QFTEEALHFVLYGVTPY-NH2 [PRDM14 D201A] was tested, and the “effect of mutation on affinity, in words” value (NSP3 SUD-M) was “reduced affinity”.
With Ac-QFTEENLHFVLYGVTPY-NH2 [PRDM14 D201N] the “effect of mutation on affinity, in words” value (NSP3 SUD-M) was “reduced affinity”.
For DEGALLDQLYLALRNF, the “PSSM value, column E” value (NSP3 UBl1) was 1, the “PSSM value, column G” value (NSP3 UBl1) was 0.00255 and the “PSSM value, column N” value (NSP3 UBl1) was 0.0003155. The “PSSM value, column Q” value (NSP3 UBl1) was 0.001034, the “PSSM value, column R” value (NSP3 UBl1) was 0.0009557 and the “PSSM value, column Y” value (NSP3 UBl1) was 0.8625.
With EPGHSPADYLRFQDLV the “DMS PSSM value, P (position 2)” value (NSP16) was 0, the “DMS PSSM value, column A (position 7)” value (NSP16) was 0 and the “DMS PSSM value, column D (position 8)” value (NSP16) was 1. For the same substance, the “DMS PSSM value, column D (position 14)” value (NSP16) was 1, the “DMS PSSM value, column F (position 12)” value (NSP16) was 1 and the “DMS PSSM value, column G (position 3)” value (NSP16) was 0. For the same substance, the “DMS PSSM value, column H (position 4)” value (NSP16) was 1, the “DMS PSSM value, column L (position 10)” value (NSP16) was 0 and the “DMS PSSM value, column L (position 15)” value (NSP16) was 0. The “DMS PSSM value, column P (position 6)” value (NSP16) was 0, the “DMS PSSM value, column Q (position 13)” value (NSP16) was 1 and the “DMS PSSM value, column R (position 11)” value (NSP16) was 1. The “DMS PSSM value, column S (position 5)” value (NSP16) was 0, the “DMS PSSM value, column V (position 16)” value (NSP16) was 1 and the “DMS PSSM value, column Y (position 9)” value (NSP16) was 0.
For GHSPADYLRFQDLVLR, the “DMS PSSM value, P (position 4)” value (NSP16) was 0.03004, the “DMS PSSM value, column A (position 5)” value (NSP16) was 0.5801 and the “DMS PSSM value, column D (position 6)” value (NSP16) was 0.9437. The “DMS PSSM value, column D (position 12)” value (NSP16) was 0.8934, the “DMS PSSM value, column F (position 10)” value (NSP16) was 1 and the “DMS PSSM value, column G (position 1)” value (NSP16) was 0.4974. The “DMS PSSM value, column H (position 2)” value (NSP16) was 0.3305, the “DMS PSSM value, column L (position 8)” value (NSP16) was 0.965 and the “DMS PSSM value, column L (position 13)” value (NSP16) was 0.8766. The “DMS PSSM value, column L (position 15)” value (NSP16) was 0.9948, the “DMS PSSM value, column Q (position 11)” value (NSP16) was 1 and the “DMS PSSM value, column R (position 9)” value (NSP16) was 0.07816. The “DMS PSSM value, column S (position 3)” value (NSP16) was 0.3438, the “DMS PSSM value, column V (position 14)” value (NSP16) was 0.9023 and the “DMS PSSM value, column Y (position 7)” value (NSP16) was 1.
For NSSGLSIGTVFQSSSP, the “PSSM value, position F11 of NSSGLSIGTVFQSSSP” value (NSP9) was 0.004607, the “PSSM value, position I7 of NSSGLSIGTVFQSSSP” value (NSP9) was 0.3584 and the “PSSM value, position L5 of NSSGLSIGTVFQSSSP” value (NSP9) was 0.5284. For the same substance, the “PSSM value, position P16 of NSSGLSIGTVFQSSSP” value (NSP9) was 0.0472, the “PSSM value, position Q12 of NSSGLSIGTVFQSSSP” value (NSP9) was 0.008402 and the “PSSM value, position S2 of NSSGLSIGTVFQSSSP” value (NSP9) was 0.1505. For the same substance, the “PSSM value, position S3 of NSSGLSIGTVFQSSSP” value (NSP9) was 0.01233, the “PSSM value, position S6 of NSSGLSIGTVFQSSSP” value (NSP9) was 0.08225 and the “PSSM value, position S13 of NSSGLSIGTVFQSSSP” value (NSP9) was 0.05519. For the same substance, the “PSSM value, position S14 of NSSGLSIGTVFQSSSP” value (NSP9) was 0.02572, the “PSSM value, position S15 of NSSGLSIGTVFQSSSP” value (NSP9) was 0.009443 and the “PSSM value, position T9 of NSSGLSIGTVFQSSSP” value (NSP9) was 0.0231. For the same substance, the “PSSM value, position V10 of NSSGLSIGTVFQSSSP” value (NSP9) was 0.01201.
For PSDEGALLDQLYLALR, the “PSSM value, column E” value (NSP3 UBl1) was 0.9239, the “PSSM value, column G” value (NSP3 UBl1) was 0.163 and the “PSSM value, column Q” value (NSP3 UBl1) was 0.8454. For the same substance, the “PSSM value, column R” value (NSP3 UBl1) was 0.000271, the “PSSM value, column S” value (NSP3 UBl1) was 0.00806 and the “PSSM value, column Y” value (NSP3 UBl1) was 0.04994.
SGLSIGTVFQSSSPGG was tested, and the “PSSM value, position F9 of SGLSIGTVFQSSSPGG” value (NSP9) was 0, the “PSSM value, position I5 of SGLSIGTVFQSSSPGG” value (NSP9) was 1 and the “PSSM value, position L3 of SGLSIGTVFQSSSPGG” value (NSP9) was 0. For the same substance, the “PSSM value, position P14 of SGLSIGTVFQSSSPGG” value (NSP9) was 0, the “PSSM value, position Q10 of SGLSIGTVFQSSSPGG” value (NSP9) was 0 and the “PSSM value, position S1 of SGLSIGTVFQSSSPGG” value (NSP9) was 0. The “PSSM value, position S4 of SGLSIGTVFQSSSPGG” value (NSP9) was 0, the “PSSM value, position S11 of SGLSIGTVFQSSSPGG” value (NSP9) was 0 and the “PSSM value, position S12 of SGLSIGTVFQSSSPGG” value (NSP9) was 0. For the same substance, the “PSSM value, position S13 of SGLSIGTVFQSSSPGG” value (NSP9) was 0, the “PSSM value, position T7 of SGLSIGTVFQSSSPGG” value (NSP9) was 0 and the “PSSM value, position V8 of SGLSIGTVFQSSSPGG” value (NSP9) was 0.

From publication PMC12102759 (Protein Science : A Publication of the Protein Society, 2025)
